Assay results taken from patent US9463174B2, “Pharmaceutical composition for the treatment of type-1 diabetes” (priority 2008, dated 2016).
Entries after “also recorded” stand apart in the source; their conditions may differ.

Legend:
MLDS CD1 mice = assay: Prevention of multiple-low-dose-streptozotocin (MLDS) induced diabetes by daily GABA injection; assay type: in vivo
Experimental: As shown in the FIG. 1, the diabetes induction by multiple-low-dose-streptozotocin (i.p. 40 mg/kg for four consecutive days, MLDS) in mice can be prevented by daily injection of GABA. The MLSD murine model is commonly used for study of T1D (Rossini A A et al, 1978 Nature. 276(5684):182-4; Harlan D M et al, 1995 Diabetes 44(7):816-23) in which the beta-cells are destroyed by the toxic streptozotocin that leads to insulin insufficiency. To certain extent, T-cell mediated beta-cell inflammation (insulitis) is found in the multiple-low-dose streptozotocin induced diabetic hyperglycemia. However, insulitis may not be necessary occurred in the hyperglycemic mice induced by one injection of streptozotocin of high dose (i.e. 200-250 mg/kg), as in the latter case the beta-cell are rapidly destroyed. […] GABA has no effect on the glucose tolerance in normal mice as determined by intraperitoneal glucose tolerance test (IPGTT) 7 days before STZ injection.
The techniques used for the in vivo and in vitro studies in this embodiment of the disclosure are also described. CD1 mice (Charles River Laboratories, St Constant, Canada), NOD mice and transgenic TCR NOD mice (Jackson Laboratory, USA) were housed under a controlled temperature and a 12-h light/12-h dark cycle in the St. Michael's Hospital Animal facility with free access to food (normal rodent chow) and water, except where noted. All procedures were conducted according to protocols and guidelines approved by the Canadian Council of Animal Care and the St. Michael's Hospital Animal Care committee. Mice were treated with GABA by daily intraperitoneal (i.p.) injection of 20·g GABA per mouse to reach ˜200 μM circulation concentration and PBS as control. The daily treatment is continuously conducted during 60-day experimental period. One wk after the GABA and PBS treatment, diabetes was induced in both groups by i.p.-injection of low-dose streptozotocin (STZ, Sigma Chemical Co., St. Louis, Mo. 40 mg/kg body weight) for 5 consecutive days. The development of hyperglycemia was monitored by measuring blood glucose from the tail vein every third day following STZ injections using an Ascensia ELITE® XL glucose meter. For some studies, overtly diabetic mice induced by STZ and without GABA treatment were divided into two groups: one group started receiving daily i.p. injection of 20·g GABA whereas other group received only PBS. The treatment was continued for 75 days. The handling of the NOD mice were similar to those CD1 mice except the STZ injection. The NOD mice have a susceptibility to spontaneous development of autoimmune T1D. The TCR transgenic 8.3-NOD mice have a markedly accelerated disease (J. Vergdaguer et al, 1997 J Exp Med. 186(10):1663-76).
Groups of mice were subject to a glucose tolerance test (IPGTT) before treatment (day 0), one, three, and five weeks after administration and the day prior termination. For IPGTT, mice were fasted overnight for 15 h, and were given 1.5 g glucose/kg body weight via i.p.-injection. Blood was drawn from the tail vein and blood glucose was measured at 0, 10, 20, 30, 60, 90, and 120 min after glucose administration.
Insulin tolerance test (ITT) was performed in non-fasting mice by i.p.-injection of 2.5 unit insulin/kg body weight. Blood was drawn from the tail vein and blood glucose levels were measured at 0, 20, 30, 40, 60, 90, and 120 min after insulin administration. Glucagon tolerance test (GTT) was performed in 15 hrs fasted mice: glucagon were i.p.-injected (50 ng/g body weight) and blood was drawn from the tail vein and blood glucose levels were measured at 0, 10, 20, 30, 60, 90, and 120 min after glucagon administration.
Mice were housed in metabolic cages prior to initiation of GABA and PBS treatment and before termination of experiments. Food intake, water consumption and urine output were measured. To determine the fat distribution, three intra-abdominal fat pads retroperitoneal, mesenteric and epididymal were dissected and weighed. […]

STC-1 cells = assay: GLP-1 production and secretion in gut-derived cells (GLP-1 RIA); assay type: cell-based
Experimental: In these in vitro assays using GLP-1-secreting and/or insulin-secreting cells, it was shown that the production and secretion of GLP-1 in the gut-derived cells (STC-1) were modulated by GABA, and the production and release of GABA from the beta-cells were also modulated by GLP-1. The specificity of these assays was determined by including the GABAAR antagonists or GLP-1 receptor antagonist in the assays.
Effects of GABA on stimulation of GLP-1 secretion from gut-derived cell lines. The production and secretion of GLP-1 in the gut-derived cells (STC-1) are examined by GLP-1 RIA. The time and dose dependent effects of GABA on GLP-1 production and secretion are examined in the gut cell lines in the presence of various concentration of GABA in which the specificity is determined by including the GABAAR antagonists in the assay.

[1] = GABA treated vs non-treated MLDS-mice
[2] = GABA treated vs untreated MLDS-mice
[3] = GABA vs non-GABA treated MLDS-mice
[4] = pancreatic immunohistochemistry, vs non-treated MLDS-mice

NCCCC(=O)O [GABA, gamma-aminobutyric acid]
glucose tolerance in normal mice (IPGTT) (MLDS CD1 mice; 7 days before STZ injection): no effect | glucose tolerance (IPGTT) (MLDS CD1 mice; [1]): significant improved glucose tolerance; also recorded: maintained close to normal glucose tolerance | glucose tolerance, area under curve (MLDS CD1 mice; [1]): significantly improved | circulating insulin (MLDS CD1 mice; [2]): significantly elevated circulating insulin levels | ratio of insulin to glucagon levels (MLDS CD1 mice; [2]): increased ratio of insulin to glucagon levels; also recorded: significantly increased insulin/glucagon ratio | serum glucagon levels (MLDS CD1 mice; [2]): reduced serum glucagon levels; also recorded: significantly reduced glucagon levels | circulating IL-12 (MLDS CD1 mice; [3]): significantly reduced | circulating INF-gamma (MLDS CD1 mice; [3]): significantly reduced | circulating level of TNF-alpha (MLDS CD1 mice; [3]): significantly decreased | circulating level of pro-inflammatory IL-1 (IL-1-beta) (MLDS CD1 mice; [3]): significantly decreased | serum level of IL-6 (MLDS CD1 mice; [3]): not different | serum level of Th2 cytokine IL-10 (MLDS CD1 mice; [3]): not different | diabetic symptoms such as polydipsia and polyuria (MLDS CD1 mice; MLDS mice, metabolic studies): significantly improved diabetic symptoms | diabetic sickness (MLDS CD1 mice; MLDS mice, throughout the feeding course): not found in any mouse | glucagon tolerance (glucagon tolerance test) (MLDS CD1 mice; MLDS-mice): significantly improved glucagon tolerance; also recorded: largely improved | improvement of glucagon intolerance, area under curve (MLDS CD1 mice; MLDS-mice): statistically significant | insulin sensitivity (insulin tolerance test) (MLDS CD1 mice; MLDS-mice): does not alter the insulin sensitivity; also recorded: did not alter the insulin sensitivity | insulitis scored by HE staining for infiltrated lymphocytes in the islets (MLDS CD1 mice; MLDS-mice): significant reduction of insulitis | number of GABA treated STZ mice that developed overt hyperglycemia (MLDS CD1 mice; after 7-day MLDS injection, control mice 8 of total 8): one | development of diabetic hyperglycemia (blood glucose) (MLDS CD1 mice; daily i.p. GABA 20·g/mouse, MLDS CD1 mice, vs untreated): prevents development of diabetic hyperglycemia; also recorded: remarkably prevented development of hyperglycemia | alpha-cell mass (MLDS CD1 mice; [4]): significantly reduced alpha-cell mass | beta-cell mass (MLDS CD1 mice; [4]): significantly reserved the beta-cell mass | production and secretion of GLP-1 in gut-derived cells (STC-1) (STC-1 cells): modulated
